Tests used:
[1] = Rotenone toxicity, trypan blue cell counting of surviving cells; assay type: cell-based; settings: human, SH-SY5Y neuroblastoma cells, 0.5 μM rotenone
Description: The human neuroblastoma cell line, that is, SH-SY5Y (RRID: CVCL 0019; ATCC® CRL-2266) was cultured in DMEM supplemented with 10% FBS and 1% penicillin-streptomycin (Welgene Inc., Gyeonsangbuk-do, Republic of Korea) at 37° C. under a wet condition of 5% CO2/95% air. The mixed culture (passages 15-22) was washed with phosphate-buffered saline (PBS), the cells were isolated with 0.25% trypsin-EDTA solution and then reseeded in DMEM containing 1% FBS at 5×10^4 cells/Ml. Then, after overnight incubation, it was used for experiments. ROT (Sigma R8875) stock was prepared at a concentration of 10 mM in […] (DMSO; Sigma D2650) solvent, stored at −80° C., and used within 6 months. Before starting each experiment, a serum-free DMEM culture was diluted to prepare a ROT stock working solution.
SH-SY5Y cells were divided into a treated group treated with ROT (0.5 μM) for 24 hours and an untreated group, followed by culturing in DMSO solvent. […] The number of surviving cells was counted using LUNA-II™ (Logos Biosystems, Gyeonggi-do, Republic of Korea) automatic cell counter. Cell count analysis was performed three times and expressed as a percentage (%) of the control.

[2] = system: tyrosine hydroxylase (TH); test: Western blot of tyrosine hydroxylase protein expression in SH-SY5Y cells; assay type: cell-based, human; settings: 0.5 μM rotenone alone; FIGS. 3 and 4
Description: (§1) SH-SY5Y cells were divided into a treated group treated with ROT (0.5 μM) for 24 hours and an untreated group, followed by culturing in DMSO solvent. Thereafter, the culture was removed, and the cells were divided into hBMSC-CM-treated group, NI-hBMSC-CM-treated group, hADSC-CM-treated group and NI-hADSC-CM-treated group in 50% diluted DMEM, followed by culturing each group in ROT (0.5 μM)-treated and untreated groups, respectively, for 24 hours. FBS was maintained at a concentration of 1% throughout the study. Phase contrast images were taken using an Olympus microscope (CKX41) equipped with a camera. […] The number of surviving cells was counted using LUNA-II™ (Logos Biosystems, Gyeonggi-do, Republic of Korea) automatic cell counter. Cell count analysis was performed three times and expressed as a percentage (%) of the control.
(§2) After incubation for a total of 48 hours, the cells were scraped using a cell scraper, washed twice with PBS, and then exposed to a cell lysis buffer supplemented with protease inhibitor and phosphatase inhibitor (100 mM Tris-HCl (pH 7.6), 100 mM NaCl, 1% Nonidet P-40, 1% sodium deoxycholate, 0.1% sodium dodecyl sulfate (SDS) and 1% Triton X-100), followed by incubation on ice for 30 minutes. […] The protein concentration was measured using a BCA protein assay kit (Thermo Fisher Scientific, Waltham, MA, USA #23225) according to the manufacturer's instructions. […]

[3] = system: Triton X-100 insoluble alpha-synuclein (p-S129 α-syn, total α-syn); test: Western blot of Triton X-100 insoluble alpha-synuclein in SH-SY5Y cells; assay type: cell-based, human; settings: ROT-treated group, insoluble fraction
Description: (§3) SH-SY5Y cells were divided into a treated group treated with ROT (0.5 μM) for 24 hours and an untreated group, followed by culturing in DMSO solvent. Thereafter, the culture was removed, and the cells were divided into hBMSC-CM-treated group, NI-hBMSC-CM-treated group, hADSC-CM-treated group and NI-hADSC-CM-treated group in 50% diluted DMEM, followed by culturing each group in ROT (0.5 μM)-treated and untreated groups, respectively, for 24 hours. FBS was maintained at a concentration of 1% throughout the study. Phase contrast images were taken using an Olympus microscope (CKX41) equipped with a camera. Damaged and depleted suspended cells in the culture and adherent cells isolated by trypsinization were combined and a trypan blue cell counting method was applied. The number of surviving cells was counted using LUNA-II™ (Logos Biosystems, Gyeonggi-do, Republic of Korea) automatic cell counter. Cell count analysis was performed three times and expressed as a percentage (%) of the control.
After 48 hours of experiment, SH-SY5Y cells were lysed in cell lysis buffer containing a protease inhibitor and a phosphatase inhibitor together with the above-described 1% Triton X-100 for 30 minutes. […] The protein concentration was measured using a BCA protein assay kit. […] The same protein load was assessed by the expression level of GAPDH used as an internal control. […]

[4] = system: NF—H, β3-tubulin, NeuN, SYP; test: Western blot of neuron-specific proteins in SH-SY5Y cells; assay type: cell-based, human; settings: rotenone treatment (0.5 μM, 48 hours); FIGS. 13A-13D, 14A-14D
Description: (§4) After incubation for a total of 48 hours, the cells were scraped using a cell scraper, washed twice with PBS, and then exposed to a cell lysis buffer supplemented with protease inhibitor and phosphatase inhibitor (100 mM Tris-HCl (pH 7.6), 100 mM NaCl, 1% Nonidet P-40, 1% sodium deoxycholate, 0.1% sodium dodecyl sulfate (SDS) and 1% Triton X-100), followed by incubation on ice for 30 minutes. The eluate was centrifuged at 13,200 rpm and at 4° C. for 15 minutes, and the supernatant was collected. The protein concentration was measured using a BCA protein assay kit (Thermo Fisher Scientific, Waltham, MA, USA #23225) according to the manufacturer's instructions.
Protein (15 μg) was separated on an 8-14% SDS-polyacrylamide gel and transferred to a nitrocellulose membrane (Millipore, Berlington, MA, USA, HATF00010), and the membrane was washed with PBS containing 0.5% (v/v) Tween 20 (PBS-T), followed by blocking with 5% (v/v) non-fat dry milk solution included in the preparation of PBS-T. Then, it was incubated overnight at 4° C. with the primary antibody. Thereafter, the cell membrane was exposed to a secondary antibody conjugated to horseradish peroxidase at room temperature (RT) for 2-3 hours, and washed three times with PBS-T. Signals were detected by an enhanced chemiluminescence (ECL) system (Millipore, WBLUR0500) using a LAS 4000 luminescent image analyzer (GE Healthcare, Japan). […]

[5] = system: BAX, Bcl-2 and Mcl-1; test: Western blot of apoptosis-related proteins Bax, Bcl-2, Mcl-1 in SH-SY5Y cells; assay type: cell-based, human; settings: rotenone alone
Description: as §3, §4
Protein (15 μg) was separated on an 8-14% SDS-polyacrylamide gel and transferred to a nitrocellulose membrane (Millipore, Berlington, MA, USA, HATF00010), and the membrane was washed with PBS containing 0.5% (v/v) Tween 20 (PBS-T), followed by blocking with 5% (v/v) non-fat dry milk solution included in the preparation of PBS-T. Then, it was incubated overnight at 4° C. with the primary antibody. […]

[6] = system: procaspase-9, 3 and 7, PARP-1; test: Western blot of caspase proteins and PARP-1 cleavage in SH-SY5Y cells; assay type: cell-based, human; settings: rotenone alone; FIGS. 17A-17D, 18A-18D
Description: as §1, §2

In the case of `C=C(C)[C@H]1Cc2c(ccc3c2O[C@@H]2COc4cc(OC)c(OC)cc4[C@@H]2C3=O)O1` [rotenone], the viability at 48 h, 0.5 μM [1] is reported as 55%, the “protein expression of tyrosine hydroxylase” value [2] is reported as “decreased” and the “phosphorylated S129 alpha-synuclein/total alpha-synuclein ratio with respect to dimers and monomers” value [3] is reported as “significantly decreased”. For the same compound, the “expression of NF—H, β3-tubulin, NeuN and SYP” value [4] was “reduced”, the Bax/Bcl-2 ratio [5] was “greatly increased” and the Bax expression ([5]; FIGS. 15A-15D, 16A-16D) was “significantly increased”. For the same compound, the “expression of Bcl-2 and Mcl-1” value ([5]; FIGS. 15A-15D, 16A-16D) was “significantly inhibited”, the cleaved-PARP/pro-PARP ratio [6] was “greatly increased” and the “expression of procaspase-9, 3 and 7” value [6] was “greatly decreased”.

— patent US20240197788A1, “PHARMACEUTICAL COMPOSITION FOR PREVENTING OR TREATING PARKINSON'S DISEASE, AND PREPARATION METHOD THEREOF” (INDUSTRY FOUNDATION OF CHONNAM NATIONAL UNIVERSITY, priority 2021, published 2024)
